In paper PMC8618442, “Solubility of Cinnarizine in (Transcutol + Water) Mixtures: Determination, Hansen Solubility Parameters, Correlation, and Thermodynamics” (Molecules, 2021):
Values after ≈ are worked out from the molar mass of the structure shown. Where two headings read alike, the source gives them in different places.

Columns and labels:
[1] = parameters: method as in PMID 25478230; settings: cited from earlier work
[2] = Shake-flask equilibrium solubility of CNZ in {TP + water} mixtures and neat solvents (HPLC at 253 nm); format: physicochemical; settings: 0.1 MPa
Method: Using a Digital Analytical Balance (Mettler Toledo, Greifensee, Switzerland) with a sensitivity of 0.10 mg, all {TP (1) + water (2)} combinations were created on a mass basis. The mass fraction of TP used to make various {TP (1) + water (2)} compositions ranged from 0.10–0.90. Three replicates of each {TP (1) + water (2)} composition were made.
Three repetitions of each experiment were carried out. Inside the Biological Shaker (Julabo, PA, USA), the acquired samples were saturated for three days to achieve equilibrium. After reaching equilibrium, the saturated samples were withdrawn from the shaker and centrifuged at 5000 rpm.

[3] = cited from earlier work
[4] = parameters: method as in doi:10.1021/acs.jced.5b00075; settings: cited from earlier work
[5] = Apparent thermodynamic analysis of CNZ dissolution (van't Hoff and Gibbs equations); format: physicochemical
Method: At the mean harmonic temperature (Thm), all apparent thermodynamic parameters were examined. The Thm was calculated using the usual formula [27]. […] The van’t Hoff and Gibbs equations were used to conduct this analysis.

[6] = TP + water, w1 = 0.1, Thm = 303.0 K
[7] = TP + water, w1 = 0.2, Thm = 303.0 K
[8] = TP + water, w1 = 0.3, Thm = 303.0 K
[9] = TP + water, w1 = 0.4, Thm = 303.0 K
[10] = TP + water, w1 = 0.5, Thm = 303.0 K
[11] = TP + water, w1 = 0.6, Thm = 303.0 K
[12] = TP + water, w1 = 0.7, Thm = 303.0 K
[13] = TP + water, w1 = 0.8, Thm = 303.0 K
[14] = TP + water, w1 = 0.9, Thm = 303.0 K
[15] = w1 = 0.0 (neat water), Thm = 303.0 K
[16] = w1 = 1.0 (neat TP), Thm = 303.0 K

Solubility (xe) in mole fraction ([2]; TP + water, w1 = 0.1, T = 293.2 K): 1.66 × 10^−7 mole fraction
Solubility (xe) in mole fraction ([2]; TP + water, w1 = 0.1, T = 298.2 K): 2.30 × 10^−7 mole fraction
Solubility (xe) in mole fraction ([2]; TP + water, w1 = 0.1, T = 303.2 K): 3.16 × 10^−7 mole fraction
Solubility (xe) in mole fraction ([2]; TP + water, w1 = 0.1, T = 308.2 K): 3.91 × 10^−7 mole fraction
Solubility (xe) in mole fraction ([2]; TP + water, w1 = 0.1, T = 313.2 K): 5.30 × 10^−7 mole fraction
Solubility (xe) in mole fraction ([2]; TP + water, w1 = 0.2, T = 293.2 K): 6.50 × 10^−7 mole fraction
Solubility (xe) in mole fraction ([2]; TP + water, w1 = 0.2, T = 298.2 K): 8.87 × 10^−7 mole fraction
Solubility (xe) in mole fraction ([2]; TP + water, w1 = 0.2, T = 303.2 K): 1.23 × 10^−6 mole fraction
Solubility (xe) in mole fraction ([2]; TP + water, w1 = 0.2, T = 308.2 K): 1.51 × 10^−6 mole fraction
Solubility (xe) in mole fraction ([2]; TP + water, w1 = 0.2, T = 313.2 K): 1.95 × 10^−6 mole fraction
Solubility (xe) in mole fraction ([2]; TP + water, w1 = 0.3, T = 293.2 K): 2.64 × 10^−6 mole fraction
Solubility (xe) in mole fraction ([2]; TP + water, w1 = 0.3, T = 298.2 K): 3.50 × 10^−6 mole fraction
Solubility (xe) in mole fraction ([2]; TP + water, w1 = 0.3, T = 303.2 K): 4.49 × 10^−6 mole fraction
Solubility (xe) in mole fraction ([2]; TP + water, w1 = 0.3, T = 308.2 K): 5.35 × 10^−6 mole fraction
Solubility (xe) in mole fraction ([2]; TP + water, w1 = 0.3, T = 313.2 K): 7.00 × 10^−6 mole fraction
Solubility (xe) in mole fraction ([2]; TP + water, w1 = 0.4, T = 293.2 K): 1.12 × 10^−5 mole fraction
Solubility (xe) in mole fraction ([2]; TP + water, w1 = 0.4, T = 298.2 K): 1.42 × 10^−5 mole fraction
Solubility (xe) in mole fraction ([2]; TP + water, w1 = 0.4, T = 303.2 K): 1.72 × 10^−5 mole fraction
Solubility (xe) in mole fraction ([2]; TP + water, w1 = 0.4, T = 308.2 K): 2.09 × 10^−5 mole fraction
Solubility (xe) in mole fraction ([2]; TP + water, w1 = 0.4, T = 313.2 K): 2.62 × 10^−5 mole fraction
Solubility (xe) in mole fraction ([2]; TP + water, w1 = 0.5, T = 293.2 K): 4.24 × 10^−5 mole fraction
Solubility (xe) in mole fraction ([2]; TP + water, w1 = 0.5, T = 298.2 K): 5.26 × 10^−5 mole fraction
Solubility (xe) in mole fraction ([2]; TP + water, w1 = 0.5, T = 303.2 K): 6.34 × 10^−5 mole fraction
Solubility (xe) in mole fraction ([2]; TP + water, w1 = 0.5, T = 308.2 K): 7.33 × 10^−5 mole fraction
Solubility (xe) in mole fraction ([2]; TP + water, w1 = 0.5, T = 313.2 K): 9.22 × 10^−5 mole fraction
Solubility (xe) in mole fraction ([2]; TP + water, w1 = 0.6, T = 293.2 K): 1.73 × 10^−4 mole fraction
Solubility (xe) in mole fraction ([2]; TP + water, w1 = 0.6, T = 298.2 K): 2.10 × 10^−4 mole fraction
Solubility (xe) in mole fraction ([2]; TP + water, w1 = 0.6, T = 303.2 K): 2.44 × 10^−4 mole fraction
Solubility (xe) in mole fraction ([2]; TP + water, w1 = 0.6, T = 308.2 K): 2.77 × 10^−4 mole fraction
Solubility (xe) in mole fraction ([2]; TP + water, w1 = 0.6, T = 313.2 K): 3.36 × 10^−4 mole fraction
Solubility (xe) in mole fraction ([2]; TP + water, w1 = 0.7, T = 293.2 K): 6.89 × 10^−4 mole fraction
Solubility (xe) in mole fraction ([2]; TP + water, w1 = 0.7, T = 298.2 K): 8.00 × 10^−4 mole fraction
Solubility (xe) in mole fraction ([2]; TP + water, w1 = 0.7, T = 303.2 K): 9.22 × 10^−4 mole fraction
Solubility (xe) in mole fraction ([2]; TP + water, w1 = 0.7, T = 308.2 K): 1.05 × 10^−3 mole fraction
Solubility (xe) in mole fraction ([2]; TP + water, w1 = 0.7, T = 313.2 K): 1.23 × 10^−3 mole fraction
Solubility (xe) in mole fraction ([2]; TP + water, w1 = 0.8, T = 293.2 K): 2.81 × 10^−3 mole fraction
Solubility (xe) in mole fraction ([2]; TP + water, w1 = 0.8, T = 298.2 K): 3.17 × 10^−3 mole fraction
Solubility (xe) in mole fraction ([2]; TP + water, w1 = 0.8, T = 303.2 K): 3.53 × 10^−3 mole fraction
Solubility (xe) in mole fraction ([2]; TP + water, w1 = 0.8, T = 308.2 K): 3.90 × 10^−3 mole fraction
Solubility (xe) in mole fraction ([2]; TP + water, w1 = 0.8, T = 313.2 K): 4.43 × 10^−3 mole fraction
Solubility (xe) in mole fraction ([2]; TP + water, w1 = 0.9, T = 293.2 K): 1.12 × 10^−2 mole fraction
Solubility (xe) in mole fraction ([2]; TP + water, w1 = 0.9, T = 298.2 K): 1.25 × 10^−2 mole fraction
Solubility (xe) in mole fraction ([2]; TP + water, w1 = 0.9, T = 303.2 K): 1.38 × 10^−2 mole fraction
Solubility (xe) in mole fraction ([2]; TP + water, w1 = 0.9, T = 308.2 K): 1.48 × 10^−2 mole fraction
Solubility (xe) in mole fraction ([2]; TP + water, w1 = 0.9, T = 313.2 K): 1.62 × 10^−2 mole fraction
Solubility (xe) in mole fraction ([2]; w1 (TP mass fraction) = 0.0 (neat water), T = 293.2 K): 3.91 × 10^−8 mole fraction
Solubility (xe) in mole fraction ([2]; w1 = 0.0 (neat water), T = 298.2 K): 5.67 × 10^−8 mole fraction
Solubility (xe) in mole fraction ([2]; w1 = 0.0 (neat water), T = 303.2 K): 7.82 × 10^−8 mole fraction
Solubility (xe) in mole fraction ([2]; w1 = 0.0 (neat water), T = 308.2 K): 9.78 × 10^−8 mole fraction
Solubility (xe) in mole fraction ([2]; w1 = 0.0 (neat water), T = 313.2 K): 1.42 × 10^−7 mole fraction
Solubility (xe) in mole fraction ([2]; w1 = 1.0 (neat TP), T = 293.2 K): 4.52 × 10^−2 mole fraction
Solubility (xe) in mole fraction ([2]; w1 = 1.0 (neat TP), T = 298.2 K): 4.78 × 10^−2 mole fraction
Solubility (xe) in mole fraction ([2]; w1 = 1.0 (neat TP), T = 303.2 K): 5.08 × 10^−2 mole fraction
Solubility (xe) in mole fraction ([2]; w1 = 1.0 (neat TP), T = 308.2 K): 5.44 × 10^−2 mole fraction
Solubility (xe) in mole fraction ([2]; w1 = 1.0 (neat TP), T = 313.2 K): 5.83 × 10^−2 mole fraction
Apparent standard Gibbs energy (ΔsolnG°) [5, 6]: 9.039 kcal/mol
Apparent standard enthalpy (ΔsolnH°) [5, 6]: 10.41 kcal/mol
Apparent standard entropy (ΔsolnS°) [5, 6]: 18.92 J mol^−1 K^−1
Apparent standard Gibbs energy (ΔsolnG°) [5, 7]: 8.229 kcal/mol
Apparent standard enthalpy (ΔsolnH°) [5, 7]: 9.964 kcal/mol
Apparent standard entropy (ΔsolnS°) [5, 7]: 23.94 J mol^−1 K^−1
Apparent standard Gibbs energy (ΔsolnG°) [5, 8]: 7.433 kcal/mol
Apparent standard enthalpy (ΔsolnH°) [5, 8]: 8.662 kcal/mol
Apparent standard entropy (ΔsolnS°) [5, 8]: 16.96 J mol^−1 K^−1
Apparent standard Gibbs energy (ΔsolnG°) [5, 9]: 6.606 kcal/mol
Apparent standard enthalpy (ΔsolnH°) [5, 9]: 7.596 kcal/mol
Apparent standard entropy (ΔsolnS°) [5, 9]: 13.68 J mol^−1 K^−1
Apparent standard Gibbs energy (ΔsolnG°) [5, 10]: 5.827 kcal/mol
Apparent standard enthalpy (ΔsolnH°) [5, 10]: 6.879 kcal/mol
Apparent standard entropy (ΔsolnS°) [5, 10]: 14.50 J mol^−1 K^−1
Apparent standard Gibbs energy (ΔsolnG°) [5, 11]: 5.014 kcal/mol
Apparent standard enthalpy (ΔsolnH°) [5, 11]: 5.853 kcal/mol
Apparent standard entropy (ΔsolnS°) [5, 11]: 11.57 J mol^−1 K^−1
Apparent standard Gibbs energy (ΔsolnG°) [5, 12]: 4.209 kcal/mol
Apparent standard enthalpy (ΔsolnH°) [5, 12]: 5.21 kcal/mol
Apparent standard entropy (ΔsolnS°) [5, 12]: 13.82 J mol^−1 K^−1
Apparent standard Gibbs energy (ΔsolnG°) [5, 13]: 3.401 kcal/mol
Apparent standard enthalpy (ΔsolnH°) [5, 13]: 4.085 kcal/mol
Apparent standard entropy (ΔsolnS°) [5, 13]: 9.464 J mol^−1 K^−1
Apparent standard Gibbs energy (ΔsolnG°) [5, 14]: 2.588 kcal/mol
Apparent standard enthalpy (ΔsolnH°) [5, 14]: 3.365 kcal/mol
Apparent standard entropy (ΔsolnS°) [5, 14]: 10.72 J mol^−1 K^−1
Apparent standard Gibbs energy (ΔsolnG°) [5, 15]: 9.876 kcal/mol
Apparent standard enthalpy (ΔsolnH°) [5, 15]: 11.39 kcal/mol
Apparent standard Gibbs energy (ΔsolnG°) [5, 16]: 1.791 kcal/mol
Apparent standard enthalpy (ΔsolnH°) [5, 16]: 2.323 kcal/mol
Apparent standard entropy (ΔsolnS°) [5, 16]: 7.346 J mol^−1 K^−1
SMILES: C(=C\c1ccccc1)/CN1CCN(C(c2ccccc2)c2ccccc2)CC1 [CNZ, 1-benzhydryl-4-[(E)-3-phenylprop-2-enyl]piperazine]
Solubility in aqueous buffer ([1]; pH = 2.0, 310.2 K): 290 µg/mL (≈ 787 µM)
Solubility in aqueous buffer ([1]; pH = 5.0, 310.2 K): 17 µg/mL (≈ 46.1 µM)
Solubility in aqueous buffer ([1]; pH = 6.5, 310.2 K): 2 µg/mL (≈ 5.43 µM)
Solubility in water [3]: practically insoluble in water
Mole fraction solubility in water ([4]; 298.3 K): 6.63 × 10^−8 mole fraction
Mole fraction solubility in water ([4]; 303.0 K): 7.71 × 10^−8 mole fraction
Mole fraction solubility in water ([4]; 307.8 K): 9.35 × 10^−8 mole fraction
